Results taken from US20070275936A1, “Formulations and Treatment Methods” (priority 1998, published 2007).

Target: chloroquine resistant KI P. falciparum
Type: cell-based
Protocol: Triplicate readings were made for each concentration.
The testing was carried out according to the procedure of Desjardins et al. 1979. After 30 hr culture at 37 degrees C., the same microtiter plates from schizont inhibition assays with another triplicate wells were pulsed with ^3H-hypoxanthine for overnight. The cell suspensions were washed twice on millipore glass fiber filter with Millipore filter apparatus. […] The activity of the drug was measured by plotting DPM against concentration of drug.

C[C@]12CC[C@H](O)C[C@@H]1CC[C@@H]1[C@@H]2CC[C@]2(C)C(=O)[C@H](Cl)C[C@@H]12 [16-chloroepiandrosterone, 16α-chloroepiandrosterone]
IC50: ˜9.25 μg/mL

C[C@]12CC[C@H](O)CC1=CC[C@@H]1[C@@H]2CC[C@]2(C)C(=O)[C@H](Br)C[C@@H]12 [DHEA-Br, 16α-bromodehydro-epiandrosterone]
IC50: ˜25.0 μg/mL
